The record followed here is patent US6028195A, “Piperazine derivatives and process for the preparation thereof” (Samjin Pharmaceutical Co., Ltd., priority 1996, dated 2000).

In brackets after ≈: the same amount, converted by molar mass. Like-named read-outs stand apart in the source and are kept apart here.

Data set [1] can be described thus: Acute toxicity test (LD50), Litchfield-Wilcoxon method. The following applies: mouse, in vivo, ip, male ICR mice, 14 days. The method, then: Acute toxicity test (LD50): Litchfield-Wilcoxon method.
6 weeks old ICR mice(male 30±2.0 g) were fed freely with solid feed and water at room temperature, 23±1° C. and at humidity 60±5%. Sample drugs were injected into the abdominal cavities of mice, while each group comprises 6 mice. Observed during 14 days, external appearances and life or dead were recorded, and then, visible pathogenies were observed from dead animals by dissection. LD50 value was calculated by Litchfiled-wilcoxon method.

A further data set has as its system SKMEL-2 (human melanoma). In words: SRB assay, in vitro antitumor effect against SKMEL-2. Type of data set: cell-based. The settings on record: Homo sapiens; SK-MEL-2, 48 hours; read-out: ED50 (the source's name). In outline: (§1)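 Cells were seeded at 5×10^3 ~2×10^4 per well, grown 24 h at 37° C in 5% CO2, then exposed for 48 h to compound in medium with final DMSO below 0.5%. TCA-fixed, 0.4% SRB-stained cells were read at 520 nm; response was 100×(T-Tz)/(C-Tz) if T≥Tz, else 100×(T-Tz)/Tz.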
A general note: The SRB assay estimates cell density from bound dye.

A further data set has as its system HCT-15 (human colon). Description: SRB assay, in vitro antitumor effect against HCT-15. Type of data set: cell-based. The settings on record: Homo sapiens; HCT 15, 48 hours; read-out: ED50 (the source's name). In outline:
as §1

Another data set has as its system SKOV-3 (human ovarian). In words: SRB assay, in vitro antitumor effect against SKOV-3. The settings on record: Homo sapiens; SK-OV-3, 48 hours; read-out: ED50 (the source's name). The class given is cell-based. In outline: as §1
The subject of another data set is XF 498 (human CNS). Description: SRB assay, in vitro antitumor effect against XF 498. The settings on record: Homo sapiens, XF498; XF-498, 48 hours; read-out: ED50 (the source's name). Type of data set: cell-based. In outline: as §1
The test system of data set [2] is mouse leukemia P388 cells. In words: In vivo antitumor effects against mouse leukemia P388 cells in BDF1 mice. The settings on record: P388, ip, abdominal cavity. How it is done: In vivo antitumor effects against mouse leukemia P388 cells.
1) Leukemia P388 cells being transfer-cultured successively in DBA/2 mouse, were grafted into each mouse of a group comprising 8 mice of 6 week old BDF1 mouse with the dose of 1×10^6 cells/0.1 ml. […]
3) With observation everyday, survival times of tested mice were measured. Antitumor activities was determined in such a manner that the increasing ratio(T/C%) of average survival days of drug-treated groups compared with the control group was calculated using the mean survival times of each tested groups.

Data set [3] deals with A549 (human non-small lung cell). In words: SRB assay, in vitro antitumor effect against A549. Type of data set: cell-based. The following applies: Homo sapiens. In outline:
as §1

Where [4] appears, read: nine everyday, read-out: T/C(%).
[5] abbreviates: on days 1, 5, 9, read-out: T/C(%).
Setting [6] is: A549, 48 hours, read-out: ED50 (the source's name).
Where [7] appears, read: on days 1, 4, 8, read-out: T/C(%).

In turn, `COc1cc(OC)cc(N2CCN(C(=O)Nc3cc(C(C)O)c(C)nc3OC)CC2)c1` (stereo not shown) [Example 56, 1-{[5-(1-Hydroxyethyl)-2-methoxy-6-methylpyridin-3-yl]aminocarbonyl}-4-(3,5-dimethoxyphenyl)piperazine] showed an LD50 at 336 h in data set [1] of 410 mg/kg. Also, the IC50 is 0.01 µg/mL (≈ 0.0232 µM) with SKMEL-2 (human melanoma); 0.045 µg/mL (≈ 0.105 µM) with HCT-15 (human colon); 0.0027 µg/mL (≈ 0.00627 µM) in the data set on SKOV-3 (human ovarian); 0.013 µg/mL (≈ 0.0302 µM) with XF 498 (human CNS); 0.017 µg/mL (≈ 0.0395 µM) in data set [3] (setting [6]). In addition, the response vs control in vivo at 10 mg/kg in data set [2] (setting [4]) was determined as 140%. The response vs control in vivo at 25 mg/kg in data set [2] (setting [4]) stood at 145%. The response vs control in vivo at 50 mg/kg came to 165% in data set [2] (setting [4]) and 118% in data set [2] (setting [5]). The response vs control in vivo at 100 mg/kg in data set [2] (setting [5]) was 141%. Moreover, the response vs control in vivo at 200 mg/kg in data set [2] (setting [5]) was found to be 227%.

On to `COc1cc(C)c(C)cc1NC(=O)N1CCN(c2cc(C)cc(C)c2)CC1` [Example 172, 1-[(4,5-Dimethyl-2-methoxyphenyl)aminocarbonyl]-4-(3,5-dimethylphenyl)piperazine], for which, in data set [1], the LD50 at 336 h is 723 mg/kg. Also, the IC50 worked out at 0.0233 µg/mL (≈ 0.0634 µM) in the data set on SKMEL-2 (human melanoma); 0.018 µg/mL (≈ 0.049 µM) with HCT-15 (human colon); 0.0097 µg/mL (≈ 0.0264 µM) with SKOV-3 (human ovarian); 0.0086 µg/mL (≈ 0.0234 µM) in the data set with XF 498 (human CNS); 0.0047 µg/mL (≈ 0.0128 µM) in data set [3] (setting [6]). The response vs control in vivo at 50 mg/kg in data set [2] (setting [7]) was 118%. Besides, the response vs control in vivo at 100 mg/kg in data set [2] (setting [7]) turned out to be 127%. In data set [2] (setting [7]), the response vs control in vivo at 200 mg/kg turned out to be 191%.

Take `CCCc1nc(OC)c(NC(=O)N2CCN(c3cc(C)cc(C)c3)CC2)cc1C` [Example 16, 1-[(2-Methoxy-5-methyl-6-propylpyridin-3-yl)aminocarbonyl]-4-(3,5-dimethylphenyl)piperazine]: in data set [1], the LD50 at 336 h amounted to 283 mg/kg. Moreover, the IC50 in the data set on SKMEL-2 (human melanoma) was 0.038 µg/mL (≈ 0.0958 µM); in the data set on HCT-15 (human colon), 0.061 µg/mL (≈ 0.154 µM); with SKOV-3 (human ovarian), 0.04 µg/mL (≈ 0.101 µM); with XF 498 (human CNS), 0.005 µg/mL (≈ 0.0126 µM); in data set [3] (setting [6]) it was 0.008 µg/mL (≈ 0.0202 µM). In addition, the response vs control in vivo at 25 mg/kg in data set [2] (setting [4]) was found to be 110%. In data set [2] (setting [4]), the response vs control in vivo at 50 mg/kg turned out to be 165%.

In data set [1], `CCCc1nc(OC)c(NC(=O)N2CCN(c3cc(OC)cc(OC)c3)CC2)cc1C` [Example 15, 1-[(2-Methoxy-5-methyl-6-propylpyridin-3-yl)aminocarbonyl]-4-(3,5-dimethoxyphenyl)piperazine] displayed an LD50 at 336 h of 190 mg/kg. The IC50 with SKMEL-2 (human melanoma) stood at 0.052 µg/mL (≈ 0.121 µM); in the data set on HCT-15 (human colon) it was 0.038 µg/mL (≈ 0.0887 µM); in the data set with SKOV-3 (human ovarian) it was 0.05 µg/mL (≈ 0.117 µM); in the data set on XF 498 (human CNS), 0.035 µg/mL (≈ 0.0817 µM); in data set [3] (setting [6]), 0.002 µg/mL (≈ 0.00467 µM). Besides, the response vs control in vivo at 10 mg/kg in data set [2] (setting [4]) amounted to 110%. Further, the response vs control in vivo at 25 mg/kg in data set [2] (setting [4]) was 150%.

In data set [1], `C=Cc1cc(NC(=O)N2CCN(c3cc(OC)cc(OC)c3)CC2)c(OC)nc1C` [Example 73, 1-[(2-Methoxy-6-methyl-5-vinylpyridin-3-yl)aminocarbonyl]-4-(3,5-dimethoxyphenyl)piperazine] yielded an LD50 at 336 h of 250 mg/kg. In addition, the IC50 in the data set with SKMEL-2 (human melanoma) was 0.02 µg/mL (≈ 0.0485 µM); in the data set on HCT-15 (human colon), 0.012 µg/mL (≈ 0.0291 µM); with SKOV-3 (human ovarian), 0.0054 µg/mL (≈ 0.0131 µM); with XF 498 (human CNS), 0.013 µg/mL (≈ 0.0315 µM); in data set [3] (setting [6]) it was 0.01 µg/mL (≈ 0.0242 µM). Besides, the response vs control in vivo at 10 mg/kg in data set [2] (setting [4]) was found to be 140%. Also, in data set [2] (setting [4]), the response vs control in vivo at 25 mg/kg came out at 150%. The response vs control in vivo at 50 mg/kg in data set [2] (setting [4]) stood at 180%.

In data set [1], `COc1cc(OC)cc(N2CCN(C(=O)Nc3cc4ccccc4nc3OC)CC2)c1` [Example 81, 1-[(2-Methoxyquinolin-3-yl)aminocarbonyl]-4-(3,5-dimethoxyphenyl)piperazine] showed a median lethal dose (LD50) at 336 h of 1600 mg/kg. For the same molecule, the IC50 in the data set with SKMEL-2 (human melanoma) came to 0.0107 µg/mL (≈ 0.0253 µM); in the data set with HCT-15 (human colon), 0.0054 µg/mL (≈ 0.0128 µM); with SKOV-3 (human ovarian) it was 0.0007 µg/mL (≈ 0.00166 µM); with XF 498 (human CNS), 0.0097 µg/mL (≈ 0.023 µM); in data set [3] (A549, 48 h, read-out: ED50) it was 0.0032 µg/mL (≈ 0.00757 µM). Further, the response vs control in vivo at 10 mg/kg in data set [2] (setting [4]) turned out to be 140%. Further, the response vs control in vivo at 25 mg/kg in data set [2] (setting [4]) is 140%. Besides, the response vs control in vivo at 50 mg/kg in data set [2] (setting [4]) was found to be 210%; in data set [2] (setting [5]) it was 127%. The response vs control in vivo at 100 mg/kg in data set [2] (setting [5]) amounted to 146%. Also, the response vs control in vivo at 200 mg/kg in data set [2] (setting [5]) was determined as 218%.

The term LD50 denotes the dose at which mortality reaches 50%. Low values mean a more toxic substance, high ones a less toxic substance.
